The results in this text go back to US12466821B2 (Novartis AG, priority 2018, dated 2025).

The structures appear in SMILES notation. Where two headings read alike, the source gives them in different places.

Usually IC50 stands for the concentration at which inhibition is half-maximal. A high value points to weaker potency. One may read the EC50 as the midpoint of the concentration-response curve.

Assay [1] addresses human HSV DNA polymerase UL30 (Human herpesvirus 1 (strain 17) (HHV-1) (Human herpes simplex virus 1), UniProt P04293). The experiment in a line: HSV polymerase biochemical assay (molecular beacon-based). As to the method: (§1) Both human CMV DNA polymerase UL54 and human HSV DNA polymerase UL30 were produced as N-terminal MBP fusion of the full length, wild type recombinant proteins in order to enhance soluble expression in insect cell expression system. The proteins were expressed in sf9 insect cells via baculovirus transduction and cells were harvested after 48 hours. The soluble proteins were purified using the standard Ni-IMAC purification strategy via the N-terminal hexa-Histidine tag, followed by heparin affinity chromatography. Both of the final MBP fusion proteins were more than 90% pure and the yield of UL54 was up to 1.8 mg per liter culture while UL30 was up to 15 mg per liter culture. All purification steps were performed on ice, with buffers chilled on ice and FPLC fraction collectors set at 6° C. […] UL30 protein was stored in buffer containing 20 mM HEPES, pH7.0, 420 mM NaCl, 20% glycerol, 6 mM Imidazole, and 0.8 mM DTT at−80° C.
(§2) DNA polymerase activity was measured using a molecular beacon-based assay, as described in Ma et. al.
(§3) 100 pM CMV polymerase or 625 pM HSV polymerase was added to a buffer containing 20 mM Tris, pH=7.5, 100 mM NaCl, 10 mM MgCl2, 0.01% Tween-20, 0.5 mM EDTA, 10% Sucrose and 1 mM DTT. The inhibitor was pre-incubated with the polymerase for 30 minutes at room temperature. Reactions were initiated by the addition of a mixture containing 1.25 uM dATP, 1.25 uM dCTP, 1.25 uM dTTP, 1.25 uM dGTP, 200 nM Primer B (5′-GAC GGG AAG-3′5′-GAC GGG AAG-3′) and 100 nM molecular beacon (5′-5,6-FAM-CCTCTCCGTGTCTTGTACTTCCCGTCAGAGAGG-BHQ1-3′). For human CMV polymerase the reactions were incubated for 60 minutes at room temperature. For HSV polymerase the reactions were incubated for 20 minutes at room temperature. The reactions were then read on a Perkin-Elmer EnVision 2101 reader (fluorescence) using an excitation of 480 nm and emission of 535 nm. 1050s were determined using an internal Novartis software (Helios).
as §3, with “nm.” for “nm. 1050s were determined using an internal Novartis software (Helios).”

Assay [2] has as its target human CMV DNA polymerase UL54 (Human cytomegalovirus (strain AD169) (HHV-5) (Human herpesvirus 5), UniProt P08546). Put plainly: CMV polymerase biochemical assay (molecular beacon-based). As to the method:
as §1, §2, §3
as §3, with “nm.” for “nm. 1050s were determined using an internal Novartis software (Helios).”

The test system of assay [3] is Luciferase-encoding HCMV, AD169 strain. The experiment in a line: CMV Luciferase assay (cellular herpesvirus replication). In kind it is cell-based. An outline of the steps:
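Neonatal human dermal fibroblasts were pretreated 1 h with compound (final 0.0159–50 μM or 0.00318–10 μM, 0.5% DMSO), then infected at MOI 1 with AD169 carrying pp28-promoter luciferase. After 72 h at 37 °C, Renilla-Glo luminescence normalized to no-virus and virus-only controls; EC50 by 4-parameter logistic model.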

Where [4] appears, read: Human betaherpesvirus 5, AD169, read-out: CMV-Luc Cellular EC50.

For `CN1CC(S(=O)(=O)C2(CN3CCn4c(ccc(C(=O)NCc5ccc(C#N)cc5)c4=O)C3=O)CC2)C1` [Example 20], the IC50 in assay [1] was 319 nM; in assay [2] it was 13.2 nM. In addition, the EC50 in assay [3] (setting [4]) stood at 1500 nM.

For the molecule `N#Cc1ccc(CNC(=O)c2ccc3n(c2=O)CCN(CC2(S(=O)(=O)C4CCCC4)CC2)C3=O)cc1F` [Example 21], the IC50 in assay [1] stood at 35.4 nM; in assay [2], 0.8 nM. Moreover, in assay [3] (setting [4]), the EC50 was found to be 58 nM.

With `N#Cc1ccc(CNC(=O)c2ccc3n(c2=O)CCN(CC2(S(=O)(=O)C4CCCC4)CC2)C3=O)cc1` [Example 22], the IC50 in assay [1] turned out to be 56.3 nM; in assay [2], 1.9 nM. Further, the EC50 in assay [3] (setting [4]) was 88.8 nM.

Consider `N#Cc1ccc(CNC(=O)c2ccc3n(c2=O)CCN(CC2(S(=O)(=O)CCCO)CC2)C3=O)cc1` [Example 24], for which the IC50 was 168 nM in assay [1] and 4.7 nM in assay [2]. Further, the EC50 in assay [3] (setting [4]) is 832 nM.

With `O=C(NCc1ccc(Cl)cc1)c1ccc2n(c1=O)CCN(CC1(S(=O)(=O)CCCO)CC1)C2=O` [Example 25], the IC50 in assay [1] is 80.8 nM; in assay [2], 2.8 nM. Besides, in assay [3] (setting [4]), the EC50 came out at 88.9 nM.

In the case of `CC(C)(C)S(=O)(=O)C1(CN2CCn3c(ccc(C(=O)NCc4ccc(C#N)c(F)c4)c3=O)C2=O)CC1` [Example 26], the figures for the IC50 in assay [1] and in assay [2] were 45.5 nM and 0.6 nM, respectively. Moreover, the EC50 in assay [3] (setting [4]) amounted to 8.9 nM.

`CC(C)(C)S(=O)(=O)C1(CN2CCn3c(ccc(C(=O)NCc4ccc(C#N)cc4)c3=O)C2=O)CC1` [Example 27]: the IC50 was 25.2 nM in assay [1] and 0.3 nM in assay [2]. For the same molecule, the EC50 in assay [3] (setting [4]) stood at 6.8 nM.

In the case of `N#Cc1ccc(CNC(=O)c2ccc3n(c2=O)CCN(CC2(S(=O)(=O)C4COC4)CC2)C3=O)cc1` [Example 28], the IC50 in assay [1] is 68.7 nM; in assay [2] it was 2.7 nM. In addition, the EC50 in assay [3] (setting [4]) worked out at 116 nM.

`N#Cc1ccc(CNC(=O)c2ccc3n(c2=O)CCN(CC2(S(=O)(=O)C4COC4)CC2)C3=O)cc1F` [Example 29]: the IC50 turned out to be 63.5 nM in assay [1] and 1.8 nM in assay [2]. The EC50 in assay [3] (setting [4]) is 86.4 nM.

On to `O=C(NCc1ccc(Cl)cc1)c1ccc2n(c1=O)CCN(CC1(S(=O)(=O)C3COC3)CC1)C2=O` [Example 30], for which the IC50 in assay [1] turned out to be 38 nM; in assay [2] it was 1.5 nM. In addition, in assay [3] (setting [4]), the EC50 is 36.3 nM.

Turning to `CC(C)S(=O)(=O)C1(CN2CCn3c(ccc(C(=O)NCc4ccc(Cl)cc4)c3=O)C2=O)CC1` [Example 31], the IC50 in assay [1] worked out at 30.6 nM; in assay [2], 0.9 nM. The EC50 in assay [3] (setting [4]) was determined as 12.4 nM.

Regarding `CC(C)S(=O)(=O)C1(CN2CCn3c(ccc(C(=O)NCc4ccc(C#N)cc4)c3=O)C2=O)CC1` [Example 32], the IC50 in assay [1] is 49.5 nM; in assay [2], 1.6 nM. For the same molecule, the EC50 in assay [3] (setting [4]) is 52 nM.

Take `CC(C)S(=O)(=O)C1(CN2CCn3c(ccc(C(=O)NCc4ccc(C#N)c(F)c4)c3=O)C2=O)CC1` [Example 33]: the IC50 was 48.2 nM in assay [1] and 1 nM in assay [2]. For the same molecule, in assay [3] (setting [4]), the EC50 was 33.1 nM.

For `CCS(=O)(=O)C1(CN2CCn3c(ccc(C(=O)NCc4ccc(C#N)c(F)c4)c3=O)C2=O)CC1` [Example 34], the IC50 was determined as 69.5 nM in assay [1] and 1.6 nM in assay [2]. The half-maximal effective concentration (EC50) in assay [3] (setting [4]) worked out at 41.2 nM.

For `CCS(=O)(=O)C1(CN2CCn3c(ccc(C(=O)NCc4ccc(C#N)cc4)c3=O)C2=O)CC1` [Example 35], the IC50 is 68.9 nM in assay [1] and 2.6 nM in assay [2]. Moreover, the EC50 in assay [3] (setting [4]) turned out to be 54.4 nM.

On to `CCS(=O)(=O)C1(CN2CCn3c(ccc(C(=O)NCc4ccc(Cl)cc4)c3=O)C2=O)CC1` [Example 36], for which the IC50 in assay [1] was determined as 42.3 nM; in assay [2], 0.7 nM. Also, the EC50 in assay [3] (setting [4]) was 24.9 nM.

As to `CS(=O)(=O)C1(CN2CCn3c(ccc(C(=O)NCc4ccc(Br)cc4)c3=O)C2=O)CC1` [Example 37], the IC50 in assay [1] was found to be 111 nM; in assay [2], 1.3 nM. The EC50 in assay [3] (setting [4]) amounted to 62.3 nM.

Regarding `CS(=O)(=O)C1(CN2CCn3c(ccc(C(=O)NCc4ccc(C#N)cc4F)c3=O)C2=O)CC1` [Example 38], the figures for the IC50 in assay [1] and in assay [2] were 630 nM and 12 nM, respectively. Also, the EC50 in assay [3] (setting [4]) stood at 868 nM.

In the case of `CS(=O)(=O)C1(CN2CCn3c(ccc(C(=O)NCc4ccc(C#N)c(F)c4)c3=O)C2=O)CC1` [Example 39], the concentration for half-maximal inhibition (IC50) worked out at 105 nM in assay [1] and 3.5 nM in assay [2]. Also, the EC50 in assay [3] (setting [4]) came out at 102 nM.

As to `CS(=O)(=O)C1(CN2CCn3c(ccc(C(=O)NCc4ncc(Cl)cn4)c3=O)C2=O)CC1` [Example 40], the IC50 in assay [1] amounted to 28300 nM; in assay [2], 480 nM. Besides, the EC50 in assay [3] (setting [4]) was determined as 10000 nM.

For the molecule `CS(=O)(=O)C1(CN2CCn3c(ccc(C(=O)NCc4ccc(Cl)c(F)c4)c3=O)C2=O)CC1` [Example 41], the results for the IC50 in assay [1] and in assay [2] were 123 nM and 2.8 nM, respectively. Also, in assay [3] (setting [4]), the EC50 amounted to 42.9 nM.

In the case of `CS(=O)(=O)C1(CN2CCn3c(ccc(C(=O)NCC4CCC5(CC4)CC5)c3=O)C2=O)CC1` [Example 42], the IC50 in assay [1] came to 12800 nM; in assay [2] it was 43.2 nM. For the same molecule, in assay [3] (setting [4]), the EC50 came out at 7490 nM.

Consider `CS(=O)(=O)C1(CN2CCn3c(ccc(C(=O)NCC4CCC(F)(F)CC4)c3=O)C2=O)CC1` [Example 43], for which the IC50 in assay [1] worked out at 7860 nM; in assay [2], 62.5 nM. The EC50 in assay [3] (setting [4]) was 6420 nM.

Regarding `C[C@H](NC(=O)c1ccc2n(c1=O)CCN(CC1(S(C)(=O)=O)CC1)C2=O)c1ccc(Cl)cc1` [Example 44], the IC50 in assay [1] was found to be 62900 nM; in assay [2] it was 763 nM. Also, the EC50 in assay [3] (setting [4]) stood at 10000 nM.

As to `C[C@@H](NC(=O)c1ccc2n(c1=O)CCN(CC1(S(C)(=O)=O)CC1)C2=O)c1ccc(Cl)cc1` [Example 45], the IC50 in assay [1] turned out to be 130000 nM; in assay [2], 458 nM. Further, the EC50 in assay [3] (setting [4]) came to 10000 nM.

With `CS(=O)(=O)C1(CN2CCn3c(ccc(C(=O)NCc4ccc(C#N)cc4)c3=O)C2=O)CC1` [Example 46], the IC50 in assay [1] was 127 nM; in assay [2], 6 nM. The EC50 in assay [3] (setting [4]) was found to be 229 nM.

On to `CS(=O)(=O)C1(CN2CCn3c(ccc(C(=O)NCc4ccc(F)cc4)c3=O)C2=O)CC1` [Example 47], for which the IC50 in assay [1] was found to be 393 nM; in assay [2], 20 nM. Moreover, in assay [3] (setting [4]), the EC50 was found to be 783 nM.

In the case of `CS(=O)(=O)C1(CN2CCn3c(ccc(C(=O)NCc4ccc(Cl)cc4)c3=O)C2=O)CC1` [Example 48], the IC50 in assay [1] turned out to be 51.3 nM; in assay [2], 3 nM. Moreover, in assay [3] (setting [4]), the EC50 amounted to 33.3 nM.

With `CS(=O)(=O)C1(CN2CCn3c(ccc(C(=O)NCc4ccc(Cl)cc4)c3=O)C2=O)CCC1` [Example 49], the IC50 in assay [1] turned out to be 2520 nM; in assay [2], 41.8 nM. Further, the EC50 in assay [3] (read-out: CMV-Luc Cellular EC50) was determined as 2800 nM.

With `O=C(NCc1ccc(Cl)cc1)c1ccc2n(c1=O)CCN(CCC1CCCS1(=O)=O)C2=O` (stereo not drawn) [Example 50-1, N-(4-chlorobenzyl)-2-(2-(1,1-dioxidotetrahydrothiophen-2-yl)ethyl)-1,6-dioxo-2,3,4,6-tetrahydro-1H-pyrido[1,2-a]pyrazine-7-carboxamide], the IC50 turned out to be 188 nM in assay [1] and 35.6 nM in assay [2]. In addition, in assay [3] (setting [4]), the EC50 stood at 306 nM.

As for `O=C(NCc1ccc(Cl)nc1)c1ccc2n(c1=O)CCN(CC1(S(=O)(=O)C3(CO)CC3)CC1)C2=O` [Example 50-2], the half-maximal inhibitory concentration (IC50) in assay [1] was 72.8 nM; in assay [2], 6.4 nM. The EC50 in assay [3] (setting [4]) came to 122 nM.
